Measurements: patent publication US9643967B2, “Pyrrolo[3,2-c]pyridine derivatives as TLR inhibitors” (TAKEDA PHARMACEUTICAL COMPANY LIMITED, priority 2013, dated 2017)
Like-named read-outs stand apart in the source and are kept apart here.

Target: T1, mTLR7 (Mus musculus, UniProt P58681)
T1 construct: Splenocytes isolated from male C57/BL6 mice; from tissue; host or cells: splenocytes from the spleen of male C57BL/6 mice
T1 sequence (P58681 27-1050): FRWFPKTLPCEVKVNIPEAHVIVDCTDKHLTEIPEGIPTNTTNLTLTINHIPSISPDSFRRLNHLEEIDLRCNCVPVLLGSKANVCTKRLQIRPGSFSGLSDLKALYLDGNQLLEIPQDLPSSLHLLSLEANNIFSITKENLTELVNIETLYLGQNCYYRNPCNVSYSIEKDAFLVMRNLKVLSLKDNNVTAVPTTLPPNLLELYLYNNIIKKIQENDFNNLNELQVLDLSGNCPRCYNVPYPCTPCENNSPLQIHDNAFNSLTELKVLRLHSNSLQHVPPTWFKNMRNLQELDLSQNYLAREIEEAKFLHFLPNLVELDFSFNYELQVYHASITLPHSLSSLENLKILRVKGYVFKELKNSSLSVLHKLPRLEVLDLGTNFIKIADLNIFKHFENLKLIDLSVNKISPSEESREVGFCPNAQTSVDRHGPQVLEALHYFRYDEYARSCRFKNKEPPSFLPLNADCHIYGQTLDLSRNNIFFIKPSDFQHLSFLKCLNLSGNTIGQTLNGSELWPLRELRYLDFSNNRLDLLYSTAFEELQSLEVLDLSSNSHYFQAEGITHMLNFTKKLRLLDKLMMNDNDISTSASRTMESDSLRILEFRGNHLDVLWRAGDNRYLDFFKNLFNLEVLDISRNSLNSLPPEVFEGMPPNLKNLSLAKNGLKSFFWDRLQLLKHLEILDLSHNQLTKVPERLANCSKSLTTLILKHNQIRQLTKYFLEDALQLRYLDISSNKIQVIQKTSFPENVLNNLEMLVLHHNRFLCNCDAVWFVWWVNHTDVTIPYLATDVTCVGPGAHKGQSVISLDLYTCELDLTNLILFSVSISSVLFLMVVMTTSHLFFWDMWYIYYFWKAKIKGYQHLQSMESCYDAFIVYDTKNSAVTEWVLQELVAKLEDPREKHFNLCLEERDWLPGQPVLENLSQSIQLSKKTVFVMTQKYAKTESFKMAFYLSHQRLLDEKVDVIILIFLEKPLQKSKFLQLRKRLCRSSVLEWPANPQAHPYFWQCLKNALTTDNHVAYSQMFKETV
Experiment: mTLR7 antagonism (IL-6 and TNF-α release assay) in mouse splenocytes, R0006/DOTAP stimulated
Format: cell-based
From the text: mTLR9 and mTLR7 Antagonism (Cytokine Release Assay) in Mouse Splenocytes
TLR7 ligand R0006 (IDT, 5′-rU*rU*rG*rU*rU*rG*rU*rU*rG*rU*rU*rG*rU*rU*rG*rU*rU*rG*rU*rU-3′ (SEQ ID NO:1)), Liposomal transfection reagent—DOTAP (Roche, Cat. No. 11202375001), TLR9 ligand CpG ODN2006 (Sequence: T*C*G*T*C*G*T*T*T*T*G*T*C*G*T*T*T*T*G*T*C*G*T*T; *=phosphorothioate (SEQ ID NO:2)) DMSO (Sigma, D2650), RPMI Powder (Sigma, R6504), Fetal Bovine Serum (Gibco, 10270), Dulbecco's Phosphate Buffered Saline (Sigma, D1408), 96 well plate (Flat bottom, Costar 3599), ELISA kit for IL-6 (EBioscience, 88-7064-77 and TNFa (EBioscience, 88-7346-88), MACS Buffer (AutoMACS Rinsing Solution (Miltenyl Biotec, 130-091-222)+0.05% BSA), RBC lysis buffer (0.85% NH4Cl), 40 μm cell strainer (BD Falcon, 352340) Method: A. Isolation of Mouse Splenocytes
Mouse spleen was isolated from C57BL6 mouse and stored in 1× chilled PBS buffer until further processed. Spleen was transferred to a sterile petriplate and chopped in to 5-6 pieces in presence of MACS buffer (100 μl) with the help of fresh surgical blade and crushed with flat plunger of a sterile syringe. A uniform suspension was prepared by passing cells through a 40 μm cell strainer. Cells were centrifuged at 450×g for 5 minutes at 4° C., supernatant was discarded and pellet dislodged gently, resuspended in 2 ml of pre-warmed (37° C.) RBC lysis buffer at room temperature with continuous gentle mixing with 1 ml pipette. Lysis buffer was neutralized with 12 ml of chilled MACS buffer and cells were passed through 40 μm cell strainer. Cell suspension was collected in 15 ml MACS buffer and centrifuged at 450×g for 5 minutes at 4° C. Pellet was resuspended in 15 ml MACS buffer and centrifuged at 400×g for 5 minutes. Cells were resuspended in 10 ml of RPMI complete medium and viability was estimated by Trypan blue method.
mTLR7 Antagonism (IL-6 and TNF-α Release Assay):
1 mg/ml stock of R0006 was prepared in sterile, endotoxin-free water. R0006 stock was diluted 10 fold with DOTAP and incubated for 30 minutes to form liposome complex (100 μg/ml of R0006). This complex was further diluted 10 fold with incomplete RPMI media (10 μg/ml of R0006) to achieve the final agonist concentration of 1 μg/ml. DOTAP alone was diluted 10 fold in incomplete RPMI media. NCEs were added in a concentration range of 30 μM to 1 nM in respective wells of assay plate, assay medium containing 0.3% DMSO were added to control wells. 0.2 million splenocytes were added to all the wells and incubated at 37° C. in 5% CO2 incubator for 30 minutes. 1 μg/ml of respective agonist was added to all the wells except those were assigned as negative controls and mixed thoroughly. DOTAP was added to negative control wells and incubated overnight at 37° C./5% CO2. The plate was centrifuged at 450×g for 5 minutes at room temperature and the supernatant was collected. ELISA was performed as per manufacturer's protocol. S/B Ratio, % Activity and % Inhibition was calculated using MS Excel. IC50 and inhibition curve was generated using Graph Pad Prism.

[1] = 1 μM, IL-6 release, mouse splenocytes, read-out: mTLR7 inhibitory activity (% at 1 μM), IL-6
[2] = 1 μM, TNF-α release, mouse splenocytes, read-out: mTLR7 inhibitory activity (% at 1 μM), TNF-α
[3] = 1 μM, IL-6 release, mouse splenocytes
[4] = 1 μM, TNF-α release, mouse splenocytes

| SMILES | inhibition at 1 µM [1] [%] | inhibition at 1 µM [2] [%] | other results |
| --- | --- | --- | --- |
| Cc1cc2[nH]c(CN3CCOCC3)cc2c(-c2ccc(C3CCN(C(C)C)CC3)cc2)n1 [Example A51, 4-[[4-[4-(1-isopropyl-4-piperidyl)phenyl]-6-methyl-1H-pyrrolo[3,2-c]pyridin-2-yl]methyl]morpholine] | 100 | 96 |  |
| CC(C)N1CC=C(c2ccc(-c3nccc4[nH]c(CN5CCOCC5)cc34)cn2)CC1 [Example A52, 4-[[4-[6-(1-isopropyl-3,6-dihydro-2H-pyridin-4-yl)-3-pyridyl]-1H-pyrrolo[3,2-c]pyridin-2-yl]methyl]morpholine] | 71 | 10 |  |
| CN1CCN(c2ccc(-c3nccc4[nH]c(CN5CCC(F)CC5)cc34)cc2)CC1 [Example A25, 2-[(4-fluoro-1-piperidyl)methyl]-4-[4-(4-methylpiperazin-1-yl)phenyl] - 1H-pyrrolo[3,2-c]pyridine] | 100 | 100 |  |
| Cc1cc2[nH]c(CCN3CCOCC3)cc2c(-c2ccc(N3CCN(C(C)C)CC3)cc2)n1 [Example B3, 4-[2-[4-[4-(4-isopropylpiperazin-1-yl)phenyl]-6-methyl-1H-pyrrolo[3,2-c]pyridin-2-yl]ethyl]morpholine] |  | 100 |  |
| CCN1CCN(c2ccc(-c3nc(C)c(C)c4[nH]c(CCN5CCOCC5)cc34)cc2)CC1 [Example B8, 4-[2-[4-[4-(4-ethylpiperazin-1-yl)phenyl]-6,7-dimethyl-1H-pyrrolo[3,2-c]pyridin-2-yl]ethyl]morpholine] |  | 88 |  |
| Cc1cc2[nH]c(CCCN3CCCCC3)cc2c(-c2ccc(N3CCN(C(C)C)CC3)cc2)n1 [Example C5, 4-[4-(4-isopropylpiperazin-1-yl)phenyl]-6-methyl-2-[3-(1-piperidyl)propyl]-1H-pyrrolo[3,2-c]pyridine] | 100 | 97 |  |
| Cc1cc2[nH]c(CCN3CCCCC3)cc2c(-c2ccc(N3CCN(C(C)C)CC3)cc2)n1 [Example B5, 4-[4-(4-isopropylpiperazin-1-yl)phenyl]-6-methyl-2-[2-(1-piperidyl)ethyl]-1H-pyrrolo[3,2-c]pyridine] |  | 100 |  |
| Cc1cc2[nH]c(CCN3CCOCC3)cc2c(-c2ccc(N3CCN(C)CC3)cc2)n1 [Example B4, 4-[2-[6-methyl-4-[4-(4-methylpiperazin-1-yl)phenyl]-1H-pyrrolo[3,2-c]pyridin-2-yl]ethyl]morpholine] |  | 100 |  |
| CC(C)N1CCN(c2ccc(-c3nccc4[nH]c(CN5CCC6(CC5)CC(O)C6)cc34)cc2)CC1 [Example A13, 7-[[4-[4-(4-isopropylpiperazin-1-yl)phenyl]-1H-pyrrolo[3,2-c]pyridin-2-yl]methyl]-7-azaspiro[3.5] nonan-2-ol] | 98 | 91 |  |
| Cc1cc2c(cc(CCN3CCOCC3)n2C)c(C2CCC(N3CCN(C(C)C)CC3)CC2)n1 (stereo not drawn) [Example B26, 4-[2-[4-[4-(4-isopropylpiperazin-1-yl)cyclohexyl]-1,6-dimethyl-pyrrolo[3,2-c]pyridin-2-yl]ethyl]morpholine] |  |  | mTLR7 inhibitory activity (% at 1 μM), IL-6 [3]: 62%; mTLR7 inhibitory activity (% at 1 μM), TNF-α [4]: 47% |
| c1cc2[nH]c(CN3CCOCC3)cc2c(-c2ccc(N3CCNCC3)cc2)n1 [Example A42, 4-[[4-(4-(piperazin-1-yl)phenyl)-1H-pyrrolo[3,2-c]pyridin-2-yl]methyl] morpholine] | 34 | 9 |  |
| CN1CCC(Oc2ccc(-c3nccc4[nH]c(CN5CCOCC5)cc34)cc2)CC1 [Example A62, 4-[[4-[4-[(1-methyl-4-piperidyl)oxy]phenyl]-1H-pyrrolo[3,2-c]pyridin-2-yl]methyl]morpholine] |  | 75 |  |
| CC(C)N1CCN(c2ccc(-c3nccc4[nH]c(CN5CCOCC5)cc34)cn2)CC1 [Example A53, 4-[[4-[6-(4-isopropylpiperazin-1-yl)-3-pyridyl]-1H-pyrrolo[3,2-c]pyridin-2-yl]methyl]morpholine] | 100 | 83 |  |
| Cc1nc(-c2ccc(N3CCN(C(C)C)CC3)cc2)c2cc(CCN3CCOCC3)[nH]c2c1C [Example B6, 4-[2-[4-[4-(4-isopropylpiperazin-1-yl)phenyl]-6,7-dimethyl-1H-pyrrolo[3,2-c]pyridin-2-yl]ethyl]morpholine] | 100 | 100 |  |
| CC(C)N1CCN(c2cccc(-c3nccc4[nH]c(CN5CCOCC5)cc34)c2)CC1 [Example A57, 4-[[4-[3-(4-isopropylpiperazin-1-yl)phenyl]-1H-pyrrolo[3,2-c]pyridin-2-yl]methyl]morpholine] | 80 | 79 |  |
| Cc1cc2c(cc(CCN3CCOCC3)n2C)c(-c2ccc(N3CCN(C(C)C)CC3)c(C(F)(F)F)c2)n1 [Example B18, 4-[2-[4-[4-(4-isopropylpiperazin-1-yl)-3-(trifluoromethyl)phenyl]-1,6-dimethyl-pyrrolo[3,2-c]pyridin-2-yl]ethyl]morpholine] | 100 | 100 |  |
| Cc1cc2c(cc(CCCN3CCOCC3)n2C)c(-c2ccc(N3CCN(C(C)C)CC3)cc2)n1 [Example C6, 4-[3-[4-[4-(4-isopropylpiperazin-1-yl)phenyl]-1,6-dimethyl-pyrrolo[3,2-c]pyridin-2-yl]propyl]morpholine] | 100 | 100 |  |
| Cc1cc2c(cc(CCN3CCOCC3)n2C)c(C2CCC(N3CCN(C(C)C)CC3)CC2)n1 (stereo not drawn) [Example B27, 4-[2-[4-[4-(4-isopropylpiperazin-1-yl)cyclohexyl]-1,6-dimethyl-pyrrolo[3,2-c]pyridin-2-yl]ethyl]morpholine] |  |  | mTLR7 inhibitory activity (% at 1 μM), IL-6 [3]: 88%; mTLR7 inhibitory activity (% at 1 μM), TNF-α [4]: 77% |
| CC(C)N1CCN(c2ccc(-c3nccc4[nH]c(C(=O)N5CCOCC5)cc34)cc2)CC1 [Example A82, [4-[4-(4-isopropylpiperazin-1-yl)phenyl]-1H-pyrrolo[3,2-c]pyridin-2-yl]-morpholino-methanone] |  |  | inhibition at 1 µM (read-out: mTLR7 inhibitory activity (% at 1 μM), IL-6): 86%; inhibition at 1 µM (read-out: mTLR7 inhibitory activity (% at 1 μM), TNF-α): 24% |
